Several values for one entry are separate records, joined by “and”; a condition that tells them apart may be missing. Equal entries are not always repeated. Inconclusive results and toxic doses are left out.

The assay deals with L1210 leukemia ip in BDF1 mice, survival T/C. Description: NCI In Vivo Anticancer Drug Screen. Data for tumor model L1210 Leukemia (intraperitoneal) in B6D2F1 (BDF1) mice. As to conditions: endpoint: mean survival time, higher = longer survival. The procedure, abridged:
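Tumor cells were implanted, animals were treated, and survival was followed. The result divides the treated measurement by the vehicle-control measurement.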

The mark [1] stands for this setting: dose: 50.0 mg/kg/injection, schedule: Q01DX001 (ip), vehicle: saline.
Where [2] appears, read: dose: 100.0 mg/kg/injection, schedule: Q01DX009 (ip), vehicle: Klucel (hydroxypropylcellulose) (HPC).
The mark [3] stands for this setting: dose: 100.0 mg/kg/injection, schedule: Q04DX003 (ip), vehicle: Klucel (hydroxypropylcellulose) (HPC).
[4] abbreviates: dose: 200.0 mg/kg/injection, schedule: Q01DX009 (ip), vehicle: Klucel (hydroxypropylcellulose) (HPC).
Where [5] appears, read: dose: 200.0 mg/kg/injection, schedule: Q04DX003 (ip), vehicle: Klucel (hydroxypropylcellulose) (HPC).
Where [6] appears, read: dose: 400.0 mg/kg/injection, schedule: Q01DX009 (ip), vehicle: Klucel (hydroxypropylcellulose) (HPC).
Where [7] appears, read: dose: 400.0 mg/kg/injection, schedule: Q04DX003 (ip), vehicle: Klucel (hydroxypropylcellulose) (HPC).
[8] abbreviates: dose: 100.0 mg/kg/injection, schedule: Q01DX009 (ip), vehicle: saline with Tween-80.
Where [9] appears, read: dose: 200.0 mg/kg/injection, schedule: Q01DX009 (ip), vehicle: saline with Tween-80.
Where [10] appears, read: dose: 400.0 mg/kg/injection, schedule: Q01DX009 (ip), vehicle: saline with Tween-80.
Where [11] appears, read: dose: 100.0 mg/kg/injection, schedule: Q04DX002 (ip), vehicle: Klucel (hydroxypropylcellulose) (HPC).
Where [12] appears, read: dose: 200.0 mg/kg/injection, schedule: Q04DX002 (ip), vehicle: Klucel (hydroxypropylcellulose) (HPC).
[13] abbreviates: dose: 400.0 mg/kg/injection, schedule: Q04DX002 (ip), vehicle: Klucel (hydroxypropylcellulose) (HPC).
Setting [14] is: dose: 100.0 mg/kg/injection, schedule: Q04DX003 (ip), vehicle: saline.
Where [15] appears, read: dose: 100.0 mg/kg/injection, schedule: Q01DX001 (ip), vehicle: Klucel (hydroxypropylcellulose) (HPC).
[16] abbreviates: dose: 200.0 mg/kg/injection, schedule: Q01DX001 (ip), vehicle: Klucel (hydroxypropylcellulose) (HPC).
[17] abbreviates: dose: 400.0 mg/kg/injection, schedule: Q01DX001 (ip), vehicle: Klucel (hydroxypropylcellulose) (HPC).

For the molecule `O=C1OC(=O)C2C1C13CCCC1=C1CCC34C(=O)OC(=O)C43CC123` (configuration not stated), the T/C (dose: 6.25 mg/kg/injection, schedule: Q01DX009 (ip), vehicle: saline) was 111 % of control; the T/C (dose: 12.5 mg/kg/injection, schedule: Q01DX001 (ip), vehicle: saline) is 115 % of control; the T/C (dose: 12.5 mg/kg/injection, schedule: Q01DX009 (ip), vehicle: saline) is 109 % of control; the T/C (dose: 12.5 mg/kg/injection, schedule: Q04DX003 (ip), vehicle: saline) was 106 % of control; the T/C (dose: 25.0 mg/kg/injection, schedule: Q01DX001 (ip), vehicle: saline) is 107 % of control; the T/C (dose: 25.0 mg/kg/injection, schedule: Q04DX003 (ip), vehicle: saline) is 104 % of control. Besides, under setting [1], the T/C is 109 % of control.
With `Cc1cc(C)c2c(c1)CCc1cc(C)cc(C)c1-2`, the T/C under setting [2] is 100 % of control; the T/C under setting [3] was 93 % of control; the T/C under setting [4] is 93 % of control; the T/C under setting [5] is 93 % of control; the T/C under setting [6] was 100 % of control; the T/C under setting [7] was 93 % of control.
On to `COc1cc(CC(=O)O)c(OC)cc1CC(=O)O`, for which the T/C is 101 % of control under setting [8]; 93 % of control (dose: 100.0 mg/kg/injection, schedule: Q04DX003 (ip), vehicle: saline with Tween-80); 99 % of control under setting [9]; 96 % of control (dose: 200.0 mg/kg/injection, schedule: Q04DX003 (ip), vehicle: saline with Tween-80); 94 % of control under setting [10]; 94 % of control (dose: 400.0 mg/kg/injection, schedule: Q04DX003 (ip), vehicle: saline with Tween-80).
For the molecule `CC(=O)Nc1nc(C)c(CCC(C)C)c(Cl)n1`, the T/C (dose: 25.0 mg/kg/injection, schedule: Q04DX002 (ip), vehicle: Klucel (hydroxypropylcellulose) (HPC)) is 104 % of control; the T/C (dose: 50.0 mg/kg/injection, schedule: Q04DX002 (ip), vehicle: Klucel (hydroxypropylcellulose) (HPC)) was 93 % of control; the T/C under setting [11] is 105 % of control.
Turning to `C[CH2][Pb]([CH2]C)([CH2]C)[S]C(C)=O`, the T/C was 89 % of control (dose: 1.5 mg/kg/injection, schedule: Q01DX009 (ip), vehicle: Klucel (hydroxypropylcellulose) (HPC)); 101 % of control (dose: 3.0 mg/kg/injection, schedule: Q01DX009 (ip), vehicle: Klucel (hydroxypropylcellulose) (HPC)); 102 % of control (dose: 12.5 mg/kg/injection, schedule: Q04DX002 (ip), vehicle: Klucel (hydroxypropylcellulose) (HPC)).
For `O=P(O)(CCP(=O)(O)c1ccccc1)c1ccccc1`, the T/C under setting [11] is 95 % of control, the T/C under setting [12] is 91 % of control and the T/C under setting [13] is 106 % of control.
`O=C(c1ccccc1)C1CCC(C(=O)c2ccccc2)C1=O` (configuration not stated): the T/C is 98 % of control (dose: 100.0 mg/kg/injection, schedule: Q01DX001 (ip), vehicle: carboxymethylcellulose (CMC)); 98 % of control (dose: 200.0 mg/kg/injection, schedule: Q01DX001 (ip), vehicle: carboxymethylcellulose (CMC)); 98 % of control (dose: 400.0 mg/kg/injection, schedule: Q01DX001 (ip), vehicle: carboxymethylcellulose (CMC)).
As to `CSc1ccc(NC(=O)C2CCCCC2C(=O)O)cc1` (configuration not stated), the T/C by setting is: under setting [11], 92 % of control; under setting [12], 111 % of control; under setting [13], 96 % of control.
With `CC1COC(Nc2cccc3c2CCCC3)=N1` (configuration not stated), the T/C is 103 % of control (dose: 12.5 mg/kg/injection, schedule: Q01DX009 (ip), vehicle: saline with Tween-80); 92 % of control (dose: 25.0 mg/kg/injection, schedule: Q01DX009 (ip), vehicle: saline with Tween-80); 90 % of control (dose: 50.0 mg/kg/injection, schedule: Q01DX009 (ip), vehicle: saline with Tween-80).
As for `CC(C)N(Cl)S(C)(=O)=O`, the T/C under setting [14] is 89 % of control.
`C=CCc1cnc(SC)[nH]c1=O`: the T/C under setting [3] was 102 % of control, the T/C under setting [5] was 97 % of control and the T/C under setting [7] is 93 % of control.
For `CCSC(SCC)C(C)=O`, the T/C reads like this: under setting [1], 92 % of control; (dose: 100.0 mg/kg/injection, schedule: Q01DX001 (ip), vehicle: saline) 108 % of control; (dose: 200.0 mg/kg/injection, schedule: Q01DX001 (ip), vehicle: saline) 94 % of control; (dose: 400.0 mg/kg/injection, schedule: Q01DX001 (ip), vehicle: saline) 89 % of control.
`NC(=O)c1ccc[n+](CC(=O)NCc2ccccc2)c1`: the T/C by setting is: under setting [14], 96 % of control; (dose: 200.0 mg/kg/injection, schedule: Q04DX003 (ip), vehicle: saline) 93 % of control.
In the case of `O=C(Nc1cccc2ccccc12)NC1CC1`, the T/C is, setting by setting: (dose: 100.0 mg/kg/injection, schedule: Q01DX009 (ip), vehicle: other) 94 % of control; (dose: 100.0 mg/kg/injection, schedule: Q04DX003 (ip), vehicle: other) 97 % of control; (dose: 200.0 mg/kg/injection, schedule: Q01DX009 (ip), vehicle: other) 94 % of control; (dose: 200.0 mg/kg/injection, schedule: Q04DX003 (ip), vehicle: other) 96 % of control; (dose: 400.0 mg/kg/injection, schedule: Q01DX009 (ip), vehicle: other) 94 % of control; (dose: 400.0 mg/kg/injection, schedule: Q04DX003 (ip), vehicle: other) 87 % of control.
As to `CC(=O)Oc1cc2c(cc1[N+](=O)[O-])OCO2`, the T/C is, setting by setting: under setting [15], 104 % of control; under setting [3], 94 % of control; under setting [16], 94 % of control; under setting [5], 93 % of control; under setting [17], 98 % of control; under setting [7], 105 % of control.
With `Cc1c(N=Nc2ccccc2)c(=O)[nH]n1-c1ccccc1`, the T/C under setting [15] was 105 % of control; the T/C under setting [3] was 111 % of control; the T/C under setting [16] was 107 % of control; the T/C under setting [5] was 106 % of control; the T/C under setting [17] was 103 % of control; the T/C under setting [7] was 96 % of control.
On to `COC(=O)c1cc(C(=O)OC)c(C(=O)OC)cc1C(=O)OC`, for which the T/C was 101 % of control under setting [8], 98 % of control under setting [9] and 98 % of control under setting [10].
With `CCCCCCCCC(SC#N)C(CCCCCCCC(=O)O)SC#N` (configuration not stated), the T/C under setting [11] was 100 % of control, the T/C under setting [12] is 95 % of control and the T/C under setting [13] is 106 % of control.
`CCOC(=O)/C=C(/C)OC(C)=O`: the T/C was 100 % of control under setting [2]; 101 % of control under setting [3]; 98 % of control under setting [4]; 95 % of control under setting [5]; 100 % of control under setting [6]; 95 % of control under setting [7].
Turning to `O=NN(CCCl)C(=O)NC1c2cc(Cl)ccc2-c2c(Cl)cc(Cl)cc21` (configuration not stated), the T/C runs as follows: (dose: 6.6 mg/kg/injection, schedule: Q04DX003 (ip), vehicle: Klucel (hydroxypropylcellulose) (HPC)) 103 % of control; (dose: 9.9 mg/kg/injection, schedule: Q04DX003 (ip), vehicle: Klucel (hydroxypropylcellulose) (HPC)) 116 % of control; (dose: 12.5 mg/kg/injection, schedule: Q01DX009 (ip), vehicle: Klucel (hydroxypropylcellulose) (HPC)) 115 % of control; (dose: 20.0 mg/kg/injection, schedule: Q04DX003 (ip), vehicle: Klucel (hydroxypropylcellulose) (HPC)) 102 % of control; (dose: 25.0 mg/kg/injection, schedule: Q01DX009 (ip), vehicle: Klucel (hydroxypropylcellulose) (HPC)) 124 % of control; (dose: 40.0 mg/kg/injection, schedule: Q04DX003 (ip), vehicle: Klucel (hydroxypropylcellulose) (HPC)) 119 % of control. Further, the T/C runs as follows: (dose: 50.0 mg/kg/injection, schedule: Q01DX009 (ip), vehicle: Klucel (hydroxypropylcellulose) (HPC)) 232 % of control; under setting [2], 252 % of control; (dose: 115.0 mg/kg/injection, schedule: Q04DX003 (ip), vehicle: Klucel (hydroxypropylcellulose) (HPC)) 154 % of control; under setting [16], 153 % of control; under setting [4], 267 % of control; under setting [5], 174 % of control. Moreover, the T/C reads like this: under setting [17], 170 % of control; under setting [6], 273 % of control; under setting [7], 157 % of control and 261 % of control.
